Data from US12595258B2, “Heterocyclic derivatives, pharmaceutical compositions and their use in the treatment or amelioration of cancer” (TOLREMO THERAPEUTICS AG, priority 2022, dated 2026).

Assays:
[1] = tested on: multiple myeloma cell line OPM-2; experiment: Multiple myeloma cellular efficacy (PrestoBlue cell proliferation/survival assay); type: cell-based; conditions: Homo sapiens, 96 h; OPM-2 cells, 4 days treatment, PrestoBlue signal relative to vehicle; read-out: Assay 1
Description: Multiple Myeloma Cellular Efficacy:
10000 OPM-2 (ACC50; DSMZ) were plated into wells of a 384 well plate (Greiner 781090). Cells were treated for 4 days with a dose range of compound or vehicle. At the end of the experiment cells were stained directly with PrestoBlue (ThermoFisher Scientific; A13262) for 2 hours at 37° C. in a humidified incubator according to manufactor's instruction. To assess the relative cell number the PrestoBlue signal was measured using either a TecanM1000Pro reader or a Tecan Sparks reader following the manufactor's instructions. Background (no cells) values were subtracted and set in relation to the vehicle control. To assess the EC50 of each compound the relative fluorescence value was plotted against the compound concentration after log transformation. Data were fitted in a nonlinear manner with a variable slope (four parameters) using graphpad prism software. Cellular efficacy of compounds was evaluated in the multiple myeloma cell line OPM-2 using the cell proliferation/survival assay PrestoBlue. EC50 values are classified as indicated below.

CBP bromodomain = target: T1, CBP bromodomain (Homo sapiens, UniProt Q92793); experiment: CBP bromodomain binding assay (TR-FRET); conditions: TR-FRET (Cayman kit 600850), 1 hour incubation at room temperature; read-out: Assay 2
T1 construct: purchased Cayman chemicals 600850
Description: CBP Bromodomain Binding Assay (TR-FRET)
Compounds solutions of 10 mM in DMSO were pre-diluted in DSMO to 25× stock solutions in DMSO. These were then diluted down to 4× in assay buffer. A dilution series in assay buffer was performed keeping the DMSO concentration stable. 5 μl compound in assay buffer was transferred into the assay plate (provided by assay kit) and the TR-FRET assay Cayman chemicals; 600850) was performed using the provider's instructions. After 1 hour incubation at room temperature in the darks, assay plates were read in a Tecan M1000 plate reader or a Tecan Sparks reader using the TR-FRET mode (top read; excitation 340 nm bandwidth 20 nM; emission 620 nm bandwidth 7 nM; gain optimal determined for the first well, number of flashes: 5; flash frequency 100 Hz; integration time: 500 μs, lag time: 100 μs, room temperature). The TR-FRET ratio was calculated by dividing 670 nm emission by 620 nm emission. Values were log transformed and non-linear regression with variable slope (4 parameters) was used to fit values to a dose-response curve to evaluate EC50 values.

T1 sequence (Q92793 1085-1192 limits assumed): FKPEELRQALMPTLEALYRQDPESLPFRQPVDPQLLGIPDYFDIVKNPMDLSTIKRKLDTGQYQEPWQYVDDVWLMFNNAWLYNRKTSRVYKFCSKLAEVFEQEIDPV

CC(=O)N1C[C@H](c2nc(Nc3ccc(C)c(-c4cn(C)nn4)c3)cc(-c3cnccn3)n2)CC[C@@H]1C [Compound 012, 1-((2S,5R)-2-methyl-5-(4-((4-methyl-3-(1-methyl-1H-1,2,3-triazol-4-yl)phenyl)amino)-6-(pyrazin-2-yl)pyrimidin-2-yl)piperidin-1-yl)ethan-1-one]
EC50 [1]: 261 nM

CC(=O)N1C[C@H](c2nc(Nc3cc(C)cc(-c4cn(C)nn4)c3)cc(-c3cnccn3)n2)CC[C@@H]1C [Compound 014, 1-((2S,5R)-2-methyl-5-(4-((3-methyl-5-(1-methyl-1H-1,2,3-triazol-4-yl)phenyl)amino)-6-(pyrazin-2-yl)pyrimidin-2-yl)piperidin-1-yl)ethan-1-one]
EC50 [1]: 5 nM | EC50 (CBP bromodomain): 7 nM

CC(=O)N1C[C@H](c2nc(Nc3cc(Cl)cc(-c4cn(C)nn4)c3)cc(-c3cnccn3)n2)CC[C@@H]1C [Compound 021, 1-((2S,5R)-5-(4-((3-chloro-5-(1-methyl-1H-1,2,3-triazol-4-yl)phenyl)amino)-6-(pyrazin-2-yl)pyrimidin-2-yl)-2-methylpiperidin-1-yl)ethan-1-one]
EC50 [1]: 5 nM

CC(=O)N1C[C@H](c2nc(Nc3cccc(-c4cnnn4C)c3)cc(-c3cnccn3)n2)CC[C@@H]1C [Compound 017, 1-((2S,5R)-2-methyl-5-(4-((3-(1-methyl-1H-1,2,3-triazol-5-yl)phenyl)amino)-6-(pyrazin-2-yl)pyrimidin-2-yl)piperidin-1-yl)ethan-1-one]
EC50 [1]: 458 nM

CC(=O)N1C[C@H](c2nc(Nc3cccc(-c4cn(C)nn4)c3C)cc(-c3cnccn3)n2)CC[C@@H]1C [Compound 013]
EC50 [1]: 32 nM

CC(=O)N1C[C@H](c2nc(Nc3cc(F)cc(-c4cn(C5COC5)nn4)c3)cc(-c3cnccn3)n2)CC[C@@H]1C [Compound 022, 1-((2S,5R)-5-(4-((3-fluoro-5-(1-(oxetan-3-yl)-1H-1,2,3-triazol-4-yl)phenyl)amino)-6-(pyrazin-2-yl)pyrimidin-2-yl)-2-methylpiperidin-1-yl)ethan-1-one]
EC50 [1]: 13 nM

CC(=O)N1C[C@H](c2nc(Nc3cc(F)cc(-c4cn[nH]c4)c3)cc(-c3cnccn3)n2)CC[C@@H]1C [Compound 002, 1-((2S,5R)-5-(4-((3-fluoro-5-(1H-pyrazol-4-yl)phenyl)amino)-6-(pyrazin-2-yl)pyrimidin-2-yl)-2-methylpiperidin-1-yl)ethan-1-one]
EC50 [1]: 25 nM | EC50 (CBP bromodomain): 23 nM

CC(=O)N1C[C@H](c2nc(Nc3cccc(-c4cn(C)nn4)c3F)cc(-c3cnccn3)n2)CC[C@@H]1C [Compound 019, 1-((2S,5R)-5-(4-((2-fluoro-3-(1-methyl-1H-1,2,3-triazol-4-yl)phenyl)amino)-6-(pyrazin-2-yl)pyrimidin-2-yl)-2-methylpiperidin-1-yl)ethan-1-one]
EC50 [1]: 1 nM | EC50 (CBP bromodomain): 6 nM

CC(=O)N1C[C@H](c2nc(Nc3cc(F)cc(-c4nnc(C)o4)c3)cc(-c3cnccn3)n2)CC[C@@H]1C [Compound 006, 1-((2S,5R)-5-(4-((3-fluoro-5-(5-methyl-1,3,4-oxadiazol-2-yl)phenyl)amino)-6-(pyrazin-2-yl)pyrimidin-2-yl)-2-methylpiperidin-1-yl)ethan-1-one]
EC50 [1]: 6 nM | EC50 (CBP bromodomain): 3 nM

CC(=O)N1C[C@H](c2nc(Nc3cccc(-c4cn(C)nc4C)c3)cc(-c3cnccn3)n2)CC[C@@H]1C [Compound 004]
EC50 (CBP bromodomain): 128 nM

CC(=O)N1C[C@H](c2nc(Nc3cccc(-c4nn(C)nc4C)c3)cc(-c3cnccn3)n2)CC[C@@H]1C [Compound 016, 1-((2S,5R)-5-(4-((3-(2,5-dimethyl-2H-1,2,3-triazol-4-yl)phenyl)amino)-6-(pyrazin-2-yl)pyrimidin-2-yl)-2-methylpiperidin-1-yl)ethan-1-one]
EC50 [1]: 142 nM

CC(=O)N1C[C@H](c2nc(Nc3cccc(-c4cn(C(C)C)nn4)c3)cc(-c3cnccn3)n2)CC[C@@H]1C [Compound 007, 1-((2S,5R)-5-(4-((3-(1-isopropyl-1H-1,2,3-triazol-4-yl)phenyl)amino)-6-(pyrazin-2-yl)pyrimidin-2-yl)-2-methylpiperidin-1-yl)ethan-1-one]
EC50 [1]: 50 nM

CCn1cc(-c2cccc(Nc3cc(-c4cnccn4)nc([C@@H]4CC[C@H](C)N(C(C)=O)C4)n3)c2)nn1 [Compound 011, 1-((2S,5R)-5-(4-((3-(1-ethyl-1H-1,2,3-triazol-4-yl)phenyl)amino)-6-(pyrazin-2-yl)pyrimidin-2-yl)-2-methylpiperidin-1-yl)ethan-1-one]
EC50 [1]: 6 nM

CC(=O)N1C[C@H](c2nc(Nc3cccc(-c4cn(C5COC5)nn4)c3)cc(-c3cnccn3)n2)CC[C@@H]1C [Compound 008]
EC50 [1]: 28 nM

CC(=O)N1C[C@H](c2nc(Nc3cc(-c4cn(C)nn4)ccc3F)cc(-c3cnccn3)n2)CC[C@@H]1C [Compound 020]
EC50 [1]: 864 nM

CC(=O)N1C[C@H](c2nc(Nc3cccc(-c4cn(C5COC5)nn4)c3F)cc(-c3cnccn3)n2)CC[C@@H]1C [Compound 023]
EC50 [1]: 7 nM | EC50 (CBP bromodomain): 65 nM

CC(=O)N1C[C@H](c2nc(Nc3cc(Cl)cc(-c4c[nH]nn4)c3)cc(-c3cnccn3)n2)CC[C@@H]1C [Compound 010, 1-((2S,5R)-5-(4-((3-chloro-5-(1H-1,2,3-triazol-4-yl)phenyl)amino)-6-(pyrazin-2-yl)pyrimidin-2-yl)-2-methylpiperidin-1-yl)ethan-1-one]
EC50 [1]: 45 nM

CC(=O)N1C[C@H](c2nc(Nc3cc(F)cc(-c4cn(C)cn4)c3)cc(-c3cnccn3)n2)CC[C@@H]1C [Compound 001, 1-((2S,5R)-5-(4-((3-fluoro-5-(1-methyl-1H-imidazol-4-yl)phenyl)amino)-6-(pyrazin-2-yl)pyrimidin-2-yl)-2-methylpiperidin-1-yl)ethan-1-one]
EC50 [1]: 1 nM | EC50 (CBP bromodomain): 7 nM

CC(=O)N1C[C@H](c2nc(Nc3ccc(F)c(-c4cn(C)nn4)c3)cc(-c3cnccn3)n2)CC[C@@H]1C [Compound 018, 1-((2S,5R)-5-(4-((4-fluoro-3-(1-methyl-1H-1,2,3-triazol-4-yl)phenyl)amino)-6-(pyrazin-2-yl)pyrimidin-2-yl)-2-methylpiperidin-1-yl)ethan-1-one]
EC50 [1]: 63 nM | EC50 (CBP bromodomain): 22 nM

CC(=O)N1C[C@H](c2nc(Nc3cccc(-c4cnn(C)c4C)c3)cc(-c3cnccn3)n2)CC[C@@H]1C [Compound 005]
EC50 [1]: 193 nM

CC(=O)N1C[C@H](c2nc(Nc3cccc(-c4nnn(C)c4C)c3)cc(-c3cnccn3)n2)CC[C@@H]1C [Compound 015, 1-((2S,5R)-5-(4-((3-(1,5-dimethyl-1H-1,2,3-triazol-4-yl)phenyl)amino)-6-(pyrazin-2-yl)pyrimidin-2-yl)-2-methylpiperidin-1-yl)ethan-1-one]
EC50 [1]: 109 nM

CC(=O)N1C[C@H](c2nc(Nc3cc(F)cc(-c4c[nH]nn4)c3)cc(-c3cnccn3)n2)CC[C@@H]1C [Compound 009, 1-((2S,5R)-5-(4-((3-fluoro-5-(1H-1,2,3-triazol-4-yl)phenyl)amino)-6-(pyrazin-2-yl)pyrimidin-2-yl)-2-methylpiperidin-1-yl)ethan-1-one]
EC50 [1]: 37 nM
